Results: US9987369B2, “Vitamin functionalized gel-forming block copolymers for biomedical applications” (INTERNATIONAL BUSINESS MACHINES CORPORATION, priority 2016, dated 2018)

What was measured:
C. albicans = test: killing efficiency of solutions; type: cell-based, Candida albicans; settings: solution, fluconazole at 5.0 mg/L
Experimental: A stock solution of cationic polymer VE/PrBr(1:15) (5 mg) in sterile HPLC grade water (10 mL) was prepared having a final concentration of 500 mg/L (500 ppm). A second stock solution of fluconazole (1 mg) in sterile HPLC grade water (100 mL) was prepared having a final concentration of 10 mg/L (10 ppm). Three solutions were prepared: (1) cationic polymer alone at 1.0MIC=250 mg/L (250 ppm) against C. albicans, (2) A cationic polymer/fluconazole solution containing VE/PrBr(1:15) at 0.5MIC=125 mg/L (125 ppm) against C. albicans and fluconazole at 2.5 mg/L (2.5 ppm), and (3) fluconazole alone at 5.0 mg/L (5 ppm). Formulation (2) was obtained by combining […] each of the stock solutions of cationic polymer and fluconazole and diluting the resulting solution with 750 microliters of sterile HPLC grade water.

P. aeruginosa = test: killing efficiency / minimum bactericidal concentration; type: cell-based, Pseudomonas aeruginosa; settings: single agent
Experimental: Procedure for hydrogels: E. coli, P. aeruginosa, S. aureus and C. albicans were obtained from ATCC and reconstituted from its lyophilized form according to the manufacturer's protocol. Bacterial samples were cultured in Tryptic Soy Broth (TSB) solution at 37° C. under constant shaking of 300 rpm. C. albicans was culture in yeast medium at room temperature under constant shaking of 70 rpm. Prior to treatment, the bacterial sample was first inoculated and cultured to enter into log growth phase. To prepare the antimicrobial hydrogels, cationic polymer was first dissolved in filtered HPLC water in a bio-hood. […] For instance, cationic polymer VE/BnCl(1:30) or cationic polymer VE/PrBr(1:30) was dissolved by using sterile HPLC grade water to form a polymer solution at various concentrations. This solution was then used to dissolve […]1.25 to form a 4 wt. % hydrogel containing various concentrations of the cationic polymers. […] The concentration of bacterial solution was adjusted to give an initial optical density (O.D.) reading of approximately 0.07 at 600 nm wavelength on a microplate reader (TECAN, Switzerland), which corresponds to the concentration of McFarland 1 solution (3×10^8 CFU/mL). […] The plates were incubated for 24 hours at 37° C. and the number of colony-forming units (CFU) was counted. […]

Row | Compound | killing efficiency against C. albicans (C. albicans) [%] | MBC against P. aeruginosa (P. aeruginosa) [µg/mL]
1 | OC(Cn1cncn1)(Cn1cncn1)c1ccc(F)cc1F [fluconazole, Fluconazole] | 93.53 | 
2 | Doxycycline [DXY] |  | 20 to 30
